pIC50: −log10 of the molar value.
Test system: 997726-040-R-J2-PDC tumor spheroids, viability
Test: Anticancer human tumor 997726-040-R-J2-PDC patient-derived squamous cell lung carcinoma cell line growth inhibition [PI3K]
Conditions: spheroids with HUVEC and MSC; for viability, T/C: stronger effect = lower value
Method in brief: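 Spheroid viability read-out. Co-cultures contained the tumor line plus HUVEC and human MSCs. Each agent was paired with a PI3K inhibitor (inavolisib, alpelisib, duvelisib, copanlisib) across half-log dilutions starting at clinical Cmax, or at 10 microM when Cmax was unknown.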
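Note: spheroids exposed to compounds for seven days before readout.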

In the case of Cn1cnc2c(F)c(Nc3ccc(Br)cc3Cl)c(C(=O)NOCCO)cc21 + CC(Nc1ccc2c(c1)OCCn1cc(N3C(=O)OCC3C(F)F)nc1-2)C(N)=O, the pIC50 (curve of first compound, second compound 0.00316 µM) was 6.81, the pIC50 (curve of first compound, second compound 0.01 µM) was 7.08 and the pIC50 (curve of first compound, second compound 0.0316 µM) was 7.86. For the same compound, the pIC50 (curve of first compound, second compound 0.1 µM) was greater than 8.02, the pIC50 (curve of first compound, second compound 0.316 µM) was greater than 8.02 and the pIC50 (curve of first compound, second compound 1 µM) was greater than 8.02. The viability, T/C (second compound 0.00316 µM, first compound 0.00949 µM) was 70.5%, the viability, T/C (second compound 0.00316 µM, first compound 0.03 µM) was 65% and the viability, T/C (second compound 0.00316 µM, first compound 0.0949 µM) was 58.1%. For the same compound, the viability, T/C (second compound 0.00316 µM, first compound 0.3 µM) was 39.1%, the viability, T/C (second compound 0.00316 µM, first compound 0.949 µM) was 35.8% and the viability, T/C (second compound 0.00316 µM, first compound 3 µM) was 29.1%. For the same compound, the viability, T/C (second compound 0.01 µM, first compound 0.00949 µM) was 62%, the viability, T/C (second compound 0.01 µM, first compound 0.03 µM) was 59% and the viability, T/C (second compound 0.01 µM, first compound 0.0949 µM) was 47.6%. For the same compound, the viability, T/C (second compound 0.01 µM, first compound 0.3 µM) was 40.8%, the viability, T/C (second compound 0.01 µM, first compound 0.949 µM) was 39.2% and the viability, T/C (second compound 0.01 µM, first compound 3 µM) was 30.9%. The viability, T/C (second compound 0.0316 µM, first compound 0.00949 µM) was 49.1%, the viability, T/C (second compound 0.0316 µM, first compound 0.03 µM) was 50.8% and the viability, T/C (second compound 0.0316 µM, first compound 0.0949 µM) was 42.2%. The viability, T/C (second compound 0.0316 µM, first compound 0.3 µM) was 30.2%, the viability, T/C (second compound 0.0316 µM, first compound 0.949 µM) was 28.2% and the viability, T/C (second compound 0.0316 µM, first compound 3 µM) was 21.1%. It also gave a viability, T/C (second compound 0.1 µM, first compound 0.00949 µM) of 36.6%, a viability, T/C (second compound 0.1 µM, first compound 0.03 µM) of 42% and a viability, T/C (second compound 0.1 µM, first compound 0.0949 µM) of 33%. It also gave a viability, T/C (second compound 0.1 µM, first compound 0.3 µM) of 22.1%, a viability, T/C (second compound 0.1 µM, first compound 0.949 µM) of 21% and a viability, T/C (second compound 0.1 µM, first compound 3 µM) of 14%. It also gave a viability, T/C (second compound 0.316 µM, first compound 0.00949 µM) of 32.1%, a viability, T/C (second compound 0.316 µM, first compound 0.03 µM) of 27.9% and a viability, T/C (second compound 0.316 µM, first compound 0.0949 µM) of 23.7%. The viability, T/C (second compound 0.316 µM, first compound 0.3 µM) was 20.5%, the viability, T/C (second compound 0.316 µM, first compound 0.949 µM) was 14% and the viability, T/C (second compound 0.316 µM, first compound 3 µM) was 15%. It also gave a viability, T/C (second compound 1 µM, first compound 0.00949 µM) of 24.5%, a viability, T/C (second compound 1 µM, first compound 0.03 µM) of 22.4% and a viability, T/C (second compound 1 µM, first compound 0.0949 µM) of 21.7%. It also gave a viability, T/C (second compound 1 µM, first compound 0.3 µM) of 20.3%, a viability, T/C (second compound 1 µM, first compound 0.949 µM) of 15% and a viability, T/C (second compound 1 µM, first compound 3 µM) of 12.9%.
CC(Cn1ccc(-c2ccc(C#N)c(Cl)c2)n1)NC(=O)c1cc(C(C)O)[nH]n1 (centres undefined) was tested, and the viability, T/C (compound 0.0316 µM) was 101% [middle of 4 runs], the viability, T/C (compound 0.1 µM) was 103% [middle of 4 runs] and the viability, T/C (compound 0.316 µM) was 105% [middle of 4 runs]. The viability, T/C (compound 1 µM) was 100% [middle of 4 runs], the viability, T/C (compound 3.16 µM) was 107% [middle of 4 runs] and the viability, T/C (compound 10 µM) was 96.3% [middle of 4 runs]. The pIC50 (curve of compound) was less than 5.00.

Source: PubChem BioAssay AID1963964 (Molecular Pharmacology Branch, DTP, NCI, 2024)
